We go through 14 substances from patent US20120232251A1, “GLUCOSE SENSOR” (King's College London, priority 2009, published 2012).

pKd: −log10 of the molar value. Where two headings read alike, the source gives them in different places.

For assay [1] the following is noted: cited from earlier work.
For assay [2] the following is noted: cited from earlier work; for fluorescence change: autofluorescence of the protein; for pKd: monitored by the autofluorescence of GBP [32], read-out: Kd for glucose.
The nature of assay [3]: Steady-state fluorescence intensity response of badan-labelled GBP mutants to glucose in PBS. In kind it is binding. Particulars: for Δ Fluorescence (%) (maximal change in fluorescence intensity with addition of glucose) / Kd: badan-labelled GBP mutant; for Δ Fluorescence (%) (maximal change in fluorescence intensity with addition of glucose): PBS, saturating glucose; for Kd: in PBS, read-out: Kd (mM) binding constant for glucose; for change in fluorescence intensity on glucose addition (in words): increasing glucose, up to 1M. How it is done:
(§1) To label GBP mutants with badan, 50 μM protein was dissolved in 5 mM Tris(2-carboxyethyl)phosphine in phosphate-buffered saline (PBS) pH 7.4, and then a 10-fold excess of dye (500 μM) was added and the mixture incubated overnight at 4° C., after which it was purified on a Sephadex G-25 gel-filtration column.
Steady-state fluorescence intensity was recorded on a Perkin-Elmer LS50B fluorimeter (Perkin Elmer Instruments, Beaconsfield, UK). The excitation and emission wavelengths of badan were 400 and 550 nm respectively. All data were obtained at room temperature using quartz cuvettes with sample volume of 100 μL. The labelled protein was incubated with increasing amounts of D-glucose for 15-20 min at room temperature before fluorescence was recorded.
The binding constant, Kd, was calculated from the sigmoidal dose-response curves using Prism 5 software (GraphPad, San Diego, Calif., USA). Lifetime values were obtained from fluorescence transients using the TR12 analysis package (courtesy of Dr. Paul Barber, Gray Cancer Institute of Radiation Oncology and Biology, Oxford University, Oxford, UK). Global analysis was applied to the entire data set of twelve transients as described for the H152C mutant previously.

The nature of assay [4]: Steady-state fluorescence intensity response of badan-labelled GBP mutant to glucose in serum. In kind it is binding. Here is the method: as §1
Venous blood samples from healthy volunteers were collected in Vacuette tubes. The specimens were incubated at room temperature for 4 days to allow blood clotting and glycolysis. The samples were then centrifuged at 3500 g for 20 min and serum removed, pooled and stored until use. The glucose concentrations of serum samples were determined using a hexokinase-based assay (Sigma).
Steady-state fluorescence intensity was recorded on a Perkin-Elmer LS50B fluorimeter (Perkin Elmer Instruments, Beaconsfield, UK). The excitation and emission wavelengths of badan were 400 and 550 nm respectively. […] The labelled protein was incubated with increasing amounts of D-glucose for 15-20 min at room temperature before fluorescence was recorded.
The binding constant, Kd, was calculated from the sigmoidal dose-response curves using Prism 5 software (GraphPad, San Diego, Calif., USA). Lifetime values were obtained from fluorescence transients using the TR12 analysis package (courtesy of Dr. Paul Barber, Gray Cancer Institute of Radiation Oncology and Biology, Oxford University, Oxford, UK). […]

[5] abbreviates: prior-art reports, read-out: Kd / binding constant for glucose.

Turning to “A213R: GBP having a single mutation of A213R (Amiss et al)”, the pKd in assay [1] (Amiss et al 2007, read-out: glucose affinity) is ~3.00.

Take “D14E/F16A: GBP two-mutant D14E/F16A, monitored by autofluorescence (Sakaguchi-Mikami et al)”: in assay [2], the fluorescence change result is “about 10%” and the pKd is 2.41.

“E149C A213R L238S: GBP triple mutant coupled to the IANBD fluorophore (Amiss et al)”: the “change in fluorescence intensity upon glucose binding (in words)” value in assay [1] (coupled to the IANBD fluorophore, Amiss et al) is reported as “fifty percent”.

For the substance “E149C/A213C/L238S(GGBP): GGBP triple mutant attached to Nile red (Thomas et al 2006)”, the “change (maximal increase) in fluorescence intensity on addition of glucose” value is given as 50% in assay [1] (prior-art reports) and “about 50%” in assay [1] (prior-art reports, listed as GBP attached to Nile red). For the same substance, in assay [1] (setting [5]), the pKd is 2.15.

In the case of “E149C/A213S/L238S: GGBP triple mutant reported by Hsieh et al”, the pKd in assay [1] (setting [5]) was 3.30.

Take “F16A: GBP mutant F16A, monitored by autofluorescence (Sakaguchi-Mikami et al)”: in assay [2], the fluorescence change result is given as “about 10%” and the pKd was 3.70.

As for “GBP: unmutated glucose/galactose binding protein of E. coli”, the pKd in assay [2] was 6.70.

What is called Kd is the free concentration of one partner at which half of the binding sites on the other are occupied at equilibrium, for simple one-to-one binding. For the substance “H152C/A213R/L238S: E. coli glucose/galactose binding protein triple mutant labelled at cysteine 152 with badan”, the “Δ Fluorescence (%) (maximal change in fluorescence intensity with addition of glucose)” value in assay [3] came to 200%; in assay [4], 180%. In addition, the Kd is 11 mM in assay [3] and 14 mM in assay [4] (read-out: Kd (mM) binding constant for glucose).

Turning to “H152C/A213R: GBP double mutant labelled at 152C with badan”, in assay [3], the “Δ Fluorescence (%) (maximal change in fluorescence intensity with addition of glucose)” value is on record as ~500% and the Kd is 0.6 mM.

With “H152C/F16A: GBP double mutant labelled at 152C with badan”, the “binding of glucose (in words)” value in assay [3] (badan-labelled) was “abolished the binding of glucose”. Besides, in assay [3], the “Δ Fluorescence (%) (maximal change in fluorescence intensity with addition of glucose)” value is given as 0%. Further, the “change in fluorescence intensity on glucose addition (in words)” value is “no change of fluorescence intensity” in assay [3] (badan-labelled, listed as F16A mutation with H152C) and “no change in fluorescence” in assay [3] (badan-labelled, listed as F16A/H152C-badan).

“H152C/L238S: GBP double mutant labelled at 152C with badan”: in assay [3], the “Δ Fluorescence (%) (maximal change in fluorescence intensity with addition of glucose)” value stood at 200% and the Kd is 0.6 mM.

Take “L238S: GBP mutant L238S previously reported”: the “weakening of the binding of glucose to GBP” value in assay [1] (previously reported [31]) was “ten-fold”.

Turning to L255C: GGBP mutant L255C (Ge et al), in assay [1] (prior-art reports), the “Kd / binding constant for glucose (in words)” value was “micromolar range”.

For “Q26C: GGBP with Gln at position 26 mutated to Cys (Tolosa et al)”, in assay [1] (prior-art reports), the “Kd / binding constant for glucose (in words)” value is listed as “micromolar range”.
